Earlier results on one molecule are cited in paper PMC5014611 (Bioorganic & medicinal chemistry, 2016).

The structures appear in SMILES notation.

This series concerns the target T1, human GIVA cPLA2 (Homo sapiens, UniProt P47712).
T1 sequence (P47712 1-749): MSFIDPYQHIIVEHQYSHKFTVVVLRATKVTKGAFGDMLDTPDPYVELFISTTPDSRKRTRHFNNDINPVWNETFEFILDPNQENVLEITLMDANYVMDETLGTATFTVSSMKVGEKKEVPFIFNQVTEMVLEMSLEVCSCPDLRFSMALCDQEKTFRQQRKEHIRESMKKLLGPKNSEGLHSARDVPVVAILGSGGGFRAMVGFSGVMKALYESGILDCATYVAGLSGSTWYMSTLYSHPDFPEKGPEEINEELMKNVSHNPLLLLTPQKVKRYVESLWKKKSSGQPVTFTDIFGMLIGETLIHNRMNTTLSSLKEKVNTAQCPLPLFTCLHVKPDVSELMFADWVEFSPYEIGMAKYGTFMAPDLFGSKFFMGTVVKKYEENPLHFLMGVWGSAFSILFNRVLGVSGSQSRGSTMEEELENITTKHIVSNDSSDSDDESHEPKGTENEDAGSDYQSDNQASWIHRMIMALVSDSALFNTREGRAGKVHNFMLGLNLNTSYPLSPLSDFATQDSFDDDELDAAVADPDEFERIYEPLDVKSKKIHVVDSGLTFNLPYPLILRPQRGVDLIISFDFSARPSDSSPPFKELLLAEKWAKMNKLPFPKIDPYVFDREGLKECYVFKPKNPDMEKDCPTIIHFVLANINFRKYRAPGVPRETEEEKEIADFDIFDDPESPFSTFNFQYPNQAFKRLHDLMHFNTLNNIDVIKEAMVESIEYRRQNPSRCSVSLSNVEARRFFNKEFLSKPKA
To be noted: commercially available inhibitor.

Consider `CCCCC/C=C\C/C=C\C/C=C\C/C=C\CCCC(=O)C(F)(F)F` [AATFMK, arachidonoyl trifluoromethyl ketone], for which the “GIVA cPLA2 XI(50)” value is on record as 0.036 mole fraction.
